Assay results: ChEMBL document CHEMBL1201862, “PubChem BioAssay data set” (2004)
Activity calls are given as the source filed them.

Legend:
[1] = molecular target: Beta-adrenergic receptor kinase 1 (Homo sapiens, UniProt P25098); assay: blockers of aptamer binding to GRK2 – biochemical, flow cytometry beads, FAM-aptamer, powder set 1, dose response (AID 588720)
[2] = molecular target: T1, Carboxy-terminal domain RNA polymerase II polypeptide A small phosphatase 1 (Homo sapiens, UniProt Q9GZU7); assay: CTDSP1 inhibitors, concentration-response, biochemical, absorbance readout, ultra-high-throughput screen actives (AID 540297); assay type: functional
T1 sequence (Q9GZU7 whole entry): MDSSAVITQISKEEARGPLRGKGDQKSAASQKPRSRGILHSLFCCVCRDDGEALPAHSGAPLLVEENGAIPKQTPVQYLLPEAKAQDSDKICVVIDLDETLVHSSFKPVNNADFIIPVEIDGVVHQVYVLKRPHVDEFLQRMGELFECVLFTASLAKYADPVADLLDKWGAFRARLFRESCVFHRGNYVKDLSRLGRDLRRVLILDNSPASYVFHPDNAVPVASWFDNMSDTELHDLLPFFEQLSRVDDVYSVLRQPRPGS

Cytochrome P450 2D6 = Cytochrome P450 2D6 (Homo sapiens, UniProt P10635);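 note: CYP2D6 member of a cytochrome P450 panel assay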
[3] = Luminescence Cell-Based Dose Retest to Confirm Inhibitors of Cancer Stem Cells. [Related pubchem assays (depositor defined):AID2717, AID2721]; assay type: functional; conditions: Homo sapiens
Cytochrome P450 2C9 = Cytochrome P450 2C9 (Homo sapiens, UniProt P11712)
[4] = viability loss of HMLE_sh_eGFP cells – cell-based, luminescence, counter-screen for HMLE_sh_ECad selective toxicity project, dose response (AID 463074); assay type: functional, Homo sapiens;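 note: HMLE human mammary epithelial cells expressing control shRNA against eGFP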
Cytochrome P450 2C19 = Cytochrome P450 2C19 (Homo sapiens, UniProt P33261); assay: Cytochrome panel assay with activity outcomes. Panel member name: p450-cyp2c19 Compounds with AC50 equal or less than 10 uM are considered active; assay type: functional; conditions: read-out: AC50
[5] = viability of uninfected HEp-2 cells – cell-based, HTS, cytotoxicity control for RSV inhibitor project, dose response (AID 2410); assay type: functional; conditions: human respiratory syncytial virus
Escherichia coli [6] = assay: microbe, parasite or virus in culture
Escherichia coli [7] = assay: microbe, parasite or virus in culture; remark: listed apart in the source
Beta-galactosidase = Beta-galactosidase (Escherichia coli, UniProt Q8VNN2); assay: PubChem AID 485352; assay type: functional
[8] = molecular target: Type-1 angiotensin II receptor (Homo sapiens, UniProt P30556); assay: antagonism of angiotensin II type 1 receptor – cell-based, uHTS hits, selectivity assay for APJ receptor antagonist project, dose response (AID 463214); assay type: functional;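 note: antagonist potency against angiotensin II stimulated AT1 response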
Chain of Type-1 angiotensin II receptor (P30556 whole entry): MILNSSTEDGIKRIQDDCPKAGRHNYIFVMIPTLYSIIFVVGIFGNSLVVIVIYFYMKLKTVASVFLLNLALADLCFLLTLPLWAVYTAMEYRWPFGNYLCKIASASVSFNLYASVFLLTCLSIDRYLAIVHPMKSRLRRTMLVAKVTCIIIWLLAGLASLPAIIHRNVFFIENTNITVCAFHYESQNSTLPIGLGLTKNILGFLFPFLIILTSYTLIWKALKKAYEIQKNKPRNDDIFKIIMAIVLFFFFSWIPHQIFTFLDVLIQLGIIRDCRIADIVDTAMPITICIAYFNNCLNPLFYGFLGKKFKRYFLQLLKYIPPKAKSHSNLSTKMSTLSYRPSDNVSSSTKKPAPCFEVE

Chain of Beta-galactosidase (Q8VNN2 whole entry): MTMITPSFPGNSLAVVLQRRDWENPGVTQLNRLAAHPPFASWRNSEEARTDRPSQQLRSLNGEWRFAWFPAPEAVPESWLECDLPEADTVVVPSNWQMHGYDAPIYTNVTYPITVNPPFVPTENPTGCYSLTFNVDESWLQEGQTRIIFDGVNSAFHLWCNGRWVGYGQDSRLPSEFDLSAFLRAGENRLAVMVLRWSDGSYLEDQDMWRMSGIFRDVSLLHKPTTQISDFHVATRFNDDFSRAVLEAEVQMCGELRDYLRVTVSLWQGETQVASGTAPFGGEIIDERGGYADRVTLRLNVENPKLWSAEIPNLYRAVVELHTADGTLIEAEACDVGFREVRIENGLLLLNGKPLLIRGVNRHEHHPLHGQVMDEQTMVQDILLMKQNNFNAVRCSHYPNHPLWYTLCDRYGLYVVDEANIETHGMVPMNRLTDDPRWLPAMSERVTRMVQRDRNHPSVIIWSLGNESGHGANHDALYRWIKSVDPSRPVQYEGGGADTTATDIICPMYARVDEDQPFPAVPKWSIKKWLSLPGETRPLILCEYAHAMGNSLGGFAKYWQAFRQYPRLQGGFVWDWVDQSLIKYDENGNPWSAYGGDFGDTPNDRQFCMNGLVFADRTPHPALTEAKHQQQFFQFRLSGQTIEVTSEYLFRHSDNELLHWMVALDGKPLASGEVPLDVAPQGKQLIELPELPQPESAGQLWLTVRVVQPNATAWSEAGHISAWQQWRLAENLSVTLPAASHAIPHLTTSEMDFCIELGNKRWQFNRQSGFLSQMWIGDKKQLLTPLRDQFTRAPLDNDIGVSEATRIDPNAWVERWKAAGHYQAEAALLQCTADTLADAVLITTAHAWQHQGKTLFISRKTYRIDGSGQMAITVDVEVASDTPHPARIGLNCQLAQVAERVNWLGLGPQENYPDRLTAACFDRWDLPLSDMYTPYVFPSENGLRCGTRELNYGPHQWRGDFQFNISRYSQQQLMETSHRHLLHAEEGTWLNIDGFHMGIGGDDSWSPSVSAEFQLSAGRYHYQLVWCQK
Chain of Beta-adrenergic receptor kinase 1 (P25098 whole entry, the tested form may be a part): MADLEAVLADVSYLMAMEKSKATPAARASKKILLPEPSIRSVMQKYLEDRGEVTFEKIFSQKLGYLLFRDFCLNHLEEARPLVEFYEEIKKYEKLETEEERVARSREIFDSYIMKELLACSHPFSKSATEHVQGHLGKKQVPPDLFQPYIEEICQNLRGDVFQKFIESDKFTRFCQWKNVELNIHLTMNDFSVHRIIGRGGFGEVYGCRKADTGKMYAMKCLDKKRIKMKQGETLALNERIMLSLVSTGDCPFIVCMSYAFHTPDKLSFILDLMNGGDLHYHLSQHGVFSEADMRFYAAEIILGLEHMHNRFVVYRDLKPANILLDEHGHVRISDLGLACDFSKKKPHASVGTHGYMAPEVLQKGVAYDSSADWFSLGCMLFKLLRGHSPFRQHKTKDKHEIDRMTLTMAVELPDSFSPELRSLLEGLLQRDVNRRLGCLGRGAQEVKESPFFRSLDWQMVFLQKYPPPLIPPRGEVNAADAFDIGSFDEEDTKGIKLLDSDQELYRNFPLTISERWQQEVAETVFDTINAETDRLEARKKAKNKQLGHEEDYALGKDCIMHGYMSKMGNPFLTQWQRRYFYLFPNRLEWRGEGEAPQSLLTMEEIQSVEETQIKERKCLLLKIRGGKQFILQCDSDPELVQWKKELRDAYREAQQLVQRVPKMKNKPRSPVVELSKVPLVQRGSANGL
Chain of Cytochrome P450 2D6 (P10635 whole entry): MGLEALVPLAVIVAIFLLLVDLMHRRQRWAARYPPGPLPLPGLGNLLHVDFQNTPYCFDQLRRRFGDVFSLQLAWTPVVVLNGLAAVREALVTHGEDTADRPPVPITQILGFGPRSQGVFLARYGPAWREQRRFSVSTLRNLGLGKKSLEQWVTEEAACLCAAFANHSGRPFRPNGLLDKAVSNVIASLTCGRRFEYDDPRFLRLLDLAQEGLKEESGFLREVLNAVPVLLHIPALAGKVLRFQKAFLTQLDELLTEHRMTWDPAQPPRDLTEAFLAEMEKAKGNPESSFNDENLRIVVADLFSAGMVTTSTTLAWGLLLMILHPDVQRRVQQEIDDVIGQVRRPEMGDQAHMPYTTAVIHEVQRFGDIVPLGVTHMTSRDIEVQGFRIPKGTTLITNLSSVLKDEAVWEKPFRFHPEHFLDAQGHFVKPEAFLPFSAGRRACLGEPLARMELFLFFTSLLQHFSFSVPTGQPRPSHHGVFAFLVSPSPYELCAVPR
Chain of Cytochrome P450 2C9 (P11712 whole entry): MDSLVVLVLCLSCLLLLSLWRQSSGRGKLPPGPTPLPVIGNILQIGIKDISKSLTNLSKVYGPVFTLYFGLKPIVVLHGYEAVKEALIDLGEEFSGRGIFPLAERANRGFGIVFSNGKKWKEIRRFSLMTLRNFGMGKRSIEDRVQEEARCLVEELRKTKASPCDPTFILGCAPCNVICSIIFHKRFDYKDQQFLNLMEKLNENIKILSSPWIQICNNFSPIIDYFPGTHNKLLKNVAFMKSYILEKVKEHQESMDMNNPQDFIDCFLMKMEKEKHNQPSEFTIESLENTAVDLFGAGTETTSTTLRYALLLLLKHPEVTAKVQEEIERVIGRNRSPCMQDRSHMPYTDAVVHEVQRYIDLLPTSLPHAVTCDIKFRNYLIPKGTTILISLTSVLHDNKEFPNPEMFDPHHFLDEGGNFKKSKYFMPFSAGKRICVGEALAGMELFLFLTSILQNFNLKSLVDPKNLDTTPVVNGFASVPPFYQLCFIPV
Chain of Cytochrome P450 2C19 (P33261 whole entry): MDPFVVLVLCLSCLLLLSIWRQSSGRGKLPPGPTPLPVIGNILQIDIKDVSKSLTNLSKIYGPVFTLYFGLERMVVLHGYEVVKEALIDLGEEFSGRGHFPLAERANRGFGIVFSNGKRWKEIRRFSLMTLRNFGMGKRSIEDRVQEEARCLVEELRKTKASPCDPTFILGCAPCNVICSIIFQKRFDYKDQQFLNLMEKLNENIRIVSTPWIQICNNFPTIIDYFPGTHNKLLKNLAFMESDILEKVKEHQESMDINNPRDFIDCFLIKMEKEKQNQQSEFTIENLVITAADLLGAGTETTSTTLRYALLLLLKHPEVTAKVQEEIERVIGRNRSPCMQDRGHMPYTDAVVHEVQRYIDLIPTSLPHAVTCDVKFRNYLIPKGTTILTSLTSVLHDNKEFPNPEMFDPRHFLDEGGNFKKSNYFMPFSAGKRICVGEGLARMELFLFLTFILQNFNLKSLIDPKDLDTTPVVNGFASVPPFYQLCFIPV

Question: Which EC50 [1] does the source give for `O=C(CCS(=O)(=O)c1ccc(Br)cc1)Nc1cc(F)ccc1F` here?
Answer: 2.47 µM (active)

Question: And the IC50 [2]?
Answer: 7.86 µM (active)

Question: For `O=C(Nc1cccc2ccccc12)c1nn(C23CC4CC(CC(C4)C2)C3)cc1Br`, which AC50 (Cytochrome P450 2D6) is on record?
Answer: inconclusive

Question: What about the AC50 [3] of the same compound?
Answer: 1.83 µM (active)

Question: What about the AC50 (Cytochrome P450 2C9) of the same compound?
Answer: inconclusive

Question: What about the AC50 [4] of the same compound?
Answer: 40.6 µM (active)

Question: What about the AC50 (Cytochrome P450 2C19) of the same compound?
Answer: 2.24 µM (inconclusive)

Question: What about the CC50 [5] of the same compound?
Answer: 27.8 µM (active)

Question: Which AC50 (Escherichia coli [6]) does the source give for `CCC[C@@H]1C[C@@]1(CCC)[C@@H](NC(=O)c1ccccc1)c1ccc(C(=O)OC)cc1` here?
Answer: > 380 µM (inactive)

Question: And the AC50 (Escherichia coli [7])?
Answer: 21.2 µM (active)

Question: For `Cc1ccc(C(=O)CNc2ccccc2)cc1`, which EC50 (Beta-galactosidase) is on record?
Answer: > 40 µM (inactive)

Question: What about the IC50 [8] of the same compound?
Answer: 9.14 µM (active)
